Data as given in patent US20250032624A1, “SMALL MOLECULE DEGRADATION METHODS FOR TREATING ALS/FTD” (University of Florida Research Foundation, Incorporated, priority 2021, published 2025).

Assays:
[1] = tested on: iPSC differentiated motor neurons (iPSNs); test: Cell viability in iPSNs; format: cell-based, human; details: doses up to 1 μM
Description: Patient-derived LCLs were seeded overnight in 96-well plates (˜10^4 cells/well) and treated with compounds for 96 hours. Cell viability was measured using the CellTiter-Fluor™ Cell Viability Assay (Promega) per the manufacturer's protocol. iPSC cell viability was measured by seeding cells in Matrigel-coated 6-well plates with Basal medium (iPSC maintenance described above). After overnight incubation, the medium was replaced with fresh medium containing compounds diluted in 0.1% DMSO. Cells were treated with compound for 96 hours. Cell viability was measured using the AlamarBlue™ Cell Viability Reagent (DAL1025, Thermo Fisher Scientific) per the manufacturer's protocol. iPSN cell viability was measured by […]

β-actin = β-actin abundance in brain of -/-PWR500 (WT) mice; format: in vivo, mouse
Description: (§1) A total of 20 age- and gender-matched mice (12 +/+PWR500 [5 Male and 7 Female] and 8 WT [4 Male and 4 Female]), ranging from 18-21 weeks old were used in therapeutic efficacy studies (Table 4). Mice were treated with a single bolus injection of 33 nmol of compound 2 formulated in 1% (v/v) DMSO/99% water, administered by an intracerebroventricular injection (ICV). Three weeks post injection, mice were euthanized, and tissue was harvested for study.
Postmortem brain tissue was harvested and sliced along the sagittal plane at the midline. The left hemisphere was frozen for RNA and protein analysis. Frozen brain tissue was homogenized in 300 μL Tris-EDTA buffer with a 1:5 w/v ratio of 2× protease and phosphatase inhibitors, as was done for RNA analysis of the tissue. Half of the homogenized tissue (150 μL) was mixed with 2× Lysis Buffer (50 mM Tris, pH 7.4, 250 mM NaCl, 2% (v/v) Triton X-100, and 4% (w/v) SDS) and sonicated at 1 second on/off intervals at 30% for a total of 15 seconds. Detergent from was removed using a Pierce™ Detergent Removal Spin Column 0.5 mL (Thermo Scientific) according to the manufacturer's protocol. Protein concentrations were then measured by BCA assay (Pierce Biotechnology) and poly(GP) was measured as described above for the electrochemical luminescent sandwich immunoassay.

[2] = tested on: r(G4C2)^exp-containing foci; test: RNA FISH of r(G4C2)exp-containing nuclear foci in cortex of +/+PWR500 mice; format: in vivo, mouse; details: +/+PWR500 mice vs vehicle
Description: as §1
Postmortem brain tissue was excised and sliced along the sagittal plane at the midline. The right hemisphere was flash frozen with Optimal Cutting Temperature (OCT) compound in 2-methylbutane in liquid nitrogen. Frozen tissue was sectioned ([…]) using a cryostat and slides were stained as previously described.^39 Briefly, frozen sections were fixed in 4% paraformaldehyde in 1×DPBS for 20 minutes then incubated in ice cold 70% ethanol at 4° C. for 30 minutes. Once fixed, slides were incubated for 10 minutes in 40% formamide in 2×SSC Buffer at room temperature. Slides were blocked in 1× Hybridization Buffer (40% formamide, 2×SSC Buffer, […] BSA, 100 mg/mL dextran sulfate, 250 μg/mL tRNA, and 2 mM vanadyl sulfate) for 30 minutes at 55° C. Slides were then incubated for 3 hours at 55° C. with 200 ng/mL of FISH probe (Table 1) in 1× Hybridization Buffer. […]

CCOC(=O)C1=C(Nc2ccccc2)S/C(=C\c2ccc(OCCOCCOCCOCCNC(=O)CCCOc3ccc4c(c3)c3cc5c(C(=O)N[C@H](C)CN(C)C)nccc5c(C)c3n4C)c(O)c2)C1=O [ALS Compound Formula I]
toxicity [1]: no significant toxicity
β-actin abundance (β-actin): no reduction
number of r(G4C2)^exp-containing foci in the nuclei of cortex neurons [2]: significantly reduced
